Measured values taken from US10001584B2, “Optical film, and polarizing plate and liquid crystal display device that use this optical film” (FUJIFILM Corporation, priority 2013, dated 2018).
Where two headings read alike, the source gives them in different places.

Assays:
[1] = pKa by alkali titration with automatic potentiometric titrator; assay type: physicochemical; conditions: mixed solvent THF/H2O=6/4 (volume ratio), 25° C.; for pKa: Table 1
Method: pKa of the obtained exemplificative compound was measured in a mixed solvent having a volume ratio of tetrahydrofuran (THF)/water (H2O)=6/4 at 25° C. by an alkali titration method using automatic potentiometric titrator [AT-610: manufactured by Kyoto Electronics Manufacturing Co., Ltd.].
The pKa of the compound of the present invention and the comparative compound in a mixed solvent having a volume ratio of tetrahydrofuran (THF)/water (H2O)=6/4 at 25° C. was measured by an alkali titration method using automatic potentiometric titrator (AT-610: manufactured by Kyoto Electronics Manufacturing Co., Ltd.).

[2] = Volatility: mass change rate of the compound by TG/DTA, held at 140° C. for 1 hour; assay type: physicochemical; conditions: for Volatility: held at 140° C. for 1 hour; for volatility suppression effect: in words, discussion of Table 1
Method: The compound denoted by Formula (I) in the present invention was heated from room temperature to 140° C. by using a TG/DTA measurement device (TG/DTA7200 manufactured by Hitachi High-Tech Science Corporation), a change rate of the mass of the compound at the time of being held at 140° C. for 1 hour (a change rate with respect to the mass before being heated) was measured, and the volatility was evaluated on the basis of the following criteria.

[3] = tetrahydrofuran/water 6/4 (v/v) mixed solvent, read-out: pKa

CCC(Oc1ccc(C(C)(C)CC)cc1C(C)(C)CC)C(=O)Nc1cccc(C(=O)O)c1 (stereo not shown) [(0-3)]
pKa [1, 3]: 6.6 | Volatility ([2]; compound alone, Table 1): A (The change rate of the mass of less than or equal to 0.2%)

O=C(O)CN(CC(=O)OCc1ccccc1)CC(=O)OCc1ccccc1 [Exemplificative Compound (1-1)]
pKa Value [1]: 6.0 | pKa [1]: 6.0 | Volatility ([2]; additive, Table 3): A (The change rate of the mass of less than or equal to 0.2%) | Volatility ([2]; additive, Table 4): A (The change rate of the mass of less than or equal to 0.2%) | Volatility ([2]; compound alone, Table 1): A (The change rate of the mass of less than or equal to 0.2%)

O=C(O)CN(CC(=O)O)Cc1ccccc1 [(0-2)]
pKa [1, 3]: 3.2 | Volatility ([2]; compound alone, Table 1): B (The change rate of the mass of greater than or equal to 0.2% and less than 0.5%) | volatility suppression effect [2]: insufficient

O=C1NC(=O)N(Cc2ccccc2)C(=O)C1c1ccccc1 (stereo not shown) [Comparative Compound (0-1)]
pKa [1, 3]: 3.7 | Volatility ([2]; compound alone, Table 1): B (The change rate of the mass of greater than or equal to 0.2% and less than 0.5%) | volatility suppression effect [2]: insufficient
